In patent US10821115B2, “Compounds that inhibit Mcl-1 protein” (priority 2017, dated 2020):

How the values were obtained:
[1] = tested on: human multiple myeloma cell line, OPM-2; assay: Cell viability assay (OPM-2 10 FBS), CellTiter-Glo; assay type: cell-based; settings: Homo sapiens, OPM-2, 16 h, read-out: OPM-2 10% FBS IC50 IP, OPM-2 cells, 10% FBS, 16 h incubation
Outline: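 Cells were seeded at 3000 cells/well in RPMI 1640 with 10% FBS and exposed to serially diluted compounds for 16 h at 37 °C, 5% CO2.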

[2] = biological target: recombinant human Mcl-1 (residues 171-327) / Bim interaction (Homo sapiens (Human), UniProt Q07820); assay: biochemical; assay type: binding; settings: 0.1 nM Mcl-1(171-327), 0.05 nM biotin-Bim (51-76); read-out: Mcl-1 HTRF IC50
Sequence of recombinant human Mcl-1 (residues 171-327) / Bim interaction (Q07820 171-327): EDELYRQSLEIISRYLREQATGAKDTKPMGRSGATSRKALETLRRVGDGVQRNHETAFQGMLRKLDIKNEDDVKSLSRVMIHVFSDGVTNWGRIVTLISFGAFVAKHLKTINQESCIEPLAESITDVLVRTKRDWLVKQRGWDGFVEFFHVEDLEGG

CCO[C@@]1(CN2CCN3CCOC[C@@H]3C2)/C=C/C[C@H](C)[C@@H](CC2CCC2)S(=O)(=O)NC(=O)c2ccc3c(c2)N(C[C@@H]2CC[C@H]21)C[C@@]1(CCCc2cc(Cl)ccc21)CO3 [Example 44, (1S,3′R,6′R,7′S,8′E,11′S,12′R)-6-chloro-12′-(cyclobutylmethyl)-7′-ethoxy-7′-((9aS)-hexahydropyrazino[2,1-c][1,4]oxazin-8(1H)-ylmethyl)-11′-methyl-3,4-dihydro-2H,15′H-spiro[naphthalene-1,22′-[20]oxa[13]thia[1,14]diazatetracyclo [14.7.2.0~3,6~.0~19,24~]pentacosa[8,16,18,24]tetraen]-15′-one 13′,13′-dioxide]
IC50 [1]: 1360 nM | IC50 [2]: 0.288 nM

CCO[C@]1(CN2CCN3CCOC[C@@H]3C2)/C=C/C[C@H](C)[C@@H](CC2CCC2)S(=O)(=O)NC(=O)c2ccc3c(c2)N(C[C@@H]2CC[C@H]21)C[C@@]1(CCCc2cc(Cl)ccc21)CO3 [Example 45, (1S,3′R,6′R,7′R,8′E,11′S,12′R)-6-chloro-12′-(cyclobutylmethyl)-7′-ethoxy-7′-((9aS)-hexahydropyrazino[2,1-c][1,4]oxazin-8(1H)-ylmethyl)-11′-methyl-3,4-dihydro-2H,15′H-spiro[naphthalene-1,22′-[20]oxa[13]thia[1,14]diazatetracyclo [14.7.2.0~3,6~.0~19,24~]pentacosa[8,16,18,24]tetraen]-15′-one 13′,13′-dioxide]
IC50 [1]: 891 nM | IC50 [2]: 0.245 nM

C=CCO[C@]1(CN2CCN3CCOC[C@@H]3C2)/C=C/C[C@H](C)[C@@H](C)S(=O)(=O)NC(=O)c2ccc3c(c2)N(C[C@@H]2CC[C@H]21)C[C@@]1(CCCc2cc(Cl)ccc21)CO3 [Example 46, (1S,3′R,6′R,7′R,8′E,11′S,12′R)-6-chloro-7′-((9aS)-hexahydropyrazino[2,1-c][1,4]oxazin-8(1H)-ylmethyl)-11′,12′-dimethyl-7′-(2-propen-1-yloxy)-3,4-dihydro-2H,15′H-spiro[naphthalene-1,22′-[20]oxa[13]thia[1,14]diazatetracyclo [14.7.2.0~3,6~.0~19,24~]pentacosa[8,16,18,24]tetraen]-15′-one 13′,13′-dioxide]
IC50 [1]: 167 nM | IC50 [2]: 0.107 nM

CC(C)O[C@]1(CN2CCN3CCOC[C@@H]3C2)/C=C/C[C@H](C)[C@@H](C)S(=O)(=O)NC(=O)c2ccc3c(c2)N(C[C@@H]2CC[C@H]21)C[C@@]1(CCCc2cc(Cl)ccc21)CO3 [Example 47, (1S,3′R,6′R,7′R,8′E,11′S,12′R)-6-chloro-7′-((9aS)-hexahydropyrazino[2,1-c][1,4]oxazin-8(1H)-ylmethyl)-11′,12′-dimethyl-7′-(1-methylethoxy)-3,4-dihydro-2H,15′H-spiro[naphthalene-1,22′-[20]oxa[13]thia[1,14]diazatetracyclo [14.7.2.0~3,6~.0~19,24~]pentacosa[8,16,18,24]tetraen]-15′-one 13′,13′-dioxide]
IC50 [1]: 285 nM | IC50 [2]: 0.131 nM

CCCCO[C@]1(CN2CCN3CCOC[C@@H]3C2)/C=C/C[C@H](C)[C@@H](C)S(=O)(=O)NC(=O)c2ccc3c(c2)N(C[C@@H]2CC[C@H]21)C[C@@]1(CCCc2cc(Cl)ccc21)CO3 [Example 48, (1S,3′R,6′R,7′R,8′E,11′S,12′R)-7′-butoxy-6-chloro-7′-((9aS)-hexahydropyrazino[2,1-c][1,4]oxazin-8(1H)-ylmethyl)-11′,12′-dimethyl-3,4-dihydro-2H,15′H-spiro[naphthalene-1,22′-[20]oxa[13]thia[1,14]diazatetracyclo [14.7.2.0~3,6~.0~19,24~]pentacosa[8,16,18,24]tetraen]-15′-one 13′,13′-dioxide]
IC50 [1]: 407 nM | IC50 [2]: 0.14 nM

C[C@@H]1[C@@H](C)C/C=C/[C@](CN2CCN3CCOC[C@@H]3C2)(OCC(F)(F)F)[C@@H]2CC[C@H]2CN2C[C@@]3(CCCc4cc(Cl)ccc43)COc3ccc(cc32)C(=O)NS1(=O)=O [Example 49, (1S,3′R,6′R,7′S,8′E,11′S,12′R)-6-chloro-7′-((9aS)-hexahydropyrazino[2,1-c][1,4]oxazin-8(1H)-ylmethyl)-11′,12′-dimethyl-7′-(2,2,2-trifluoroethoxy)-3,4-dihydro-2H,15′H-spiro[naphthalene-1,22′-[20]oxa[13]thia[1,14]diazatetracyclo [14.7.2.0~3,6~.0~19,24~]pentacosa[8,16,18,24]tetraen]-15′-one 13′,13′-dioxide]
IC50 [1]: 185 nM | IC50 [2]: 0.087 nM

C[C@@H]1[C@@H](C)C/C=C/[C@@](CN2CCN3CCOC[C@@H]3C2)(OCC(F)(F)F)[C@@H]2CC[C@H]2CN2C[C@@]3(CCCc4cc(Cl)ccc43)COc3ccc(cc32)C(=O)NS1(=O)=O [Example 50, (1S,3′R,6′R,7′R,8′E,11′S,12′R)-6-chloro-7′-((9aS)-hexahydropyrazino[2,1-c][1,4]oxazin-8(1H)-ylmethyl)-11′,12′-dimethyl-7′-(2,2,2-trifluoroethoxy)-3,4-dihydro-2H,15′H-spiro[naphthalene-1,22′-[20]oxa[13]thia[1,14]diazatetracyclo [14.7.2.0~3,6~.0~19,24~]pentacosa[8,16,18,24]tetraen]-15′-one 13′,13′-dioxide]
IC50 [1]: 1530 nM | IC50 [2]: 0.736 nM

CC(C)O[C@]1(CN2CCN(C(C)C)[C@H](C)C2)/C=C/C[C@H](C)[C@@H](C)S(=O)(=O)NC(=O)c2ccc3c(c2)N(C[C@@H]2CC[C@H]21)C[C@@]1(CCCc2cc(Cl)ccc21)CO3 [Example 51]
IC50 [1]: 99 nM | IC50 [2]: 0.072 nM

CO[C@@]1(CN2CCOCC2)/C=C/C[C@H](C)[C@@H](C)S(=O)(=O)NC(=O)c2ccc3c(c2)N(C[C@@H]2CC[C@H]21)C[C@@]1(CCCc2cc(Cl)ccc21)CO3 [Example 52, (1S,3′R,6′R,7′S,8′E,11′S,12′R)-6-chloro-7′-methoxy-11′,12′-dimethyl-7′-(4-morpholinylmethyl)-3,4-dihydro-2H,15′H-spiro[naphthalene-1,22′-[20]oxa[13]thia[1,14]diazatetracyclo [14.7.2.0~3,6~.0~19,24~]pentacosa[8,16,18,24]tetraen]-15′-one 13′,13′-dioxide]
IC50 [1]: 330 nM | IC50 [2]: 0.522 nM

CO[C@]1(CN2CCOCC2)/C=C/C[C@H](C)[C@@H](C)S(=O)(=O)NC(=O)c2ccc3c(c2)N(C[C@@H]2CC[C@H]21)C[C@@]1(CCCc2cc(Cl)ccc21)CO3 [Example 53, (1S,3′R,6′R,7′R,8′E,11′S,12′R)-6-chloro-7′-methoxy-11′,12′-dimethyl-7′-(4-morpholinylmethyl)-3,4-dihydro-2H,15′H-spiro[naphthalene-1,22′-[20]oxa[13]thia[1,14]diazatetracyclo [14.7.2.0~3,6~.0~19,24~]pentacosa[8,16,18,24]tetraen]-15′-one 13′,13′-dioxide]
IC50 [1]: 290 nM | IC50 [2]: 0.336 nM

COCCN1CCN(C[C@@]2(OC)/C=C/C[C@H](C)[C@@H](C)S(=O)(=O)NC(=O)c3ccc4c(c3)N(C[C@@H]3CC[C@H]32)C[C@@]2(CCCc3cc(Cl)ccc32)CO4)CC1=O [Example 54, (1S,3′R,6′R,7′R,8′E,11′S,12′R)-6-chloro-7′-methoxy-7′-((4-(2-methoxyethyl)-3-oxo-1-piperazinyl)methyl)-11′,12′-dimethyl-3,4-dihydro-2H,15′H-spiro[naphthalene-1,22′-[20]oxa[13]thia[1,14]diazatetracyclo [14.7.2.0~3,6~.0~19,24~]pentacosa[8,16,18,24]tetraen]-15′-one 13′,13′-dioxide]
IC50 [1]: 129 nM | IC50 [2]: 0.173 nM
